Experimental data from patent publication US20060002946A1, “Targeted immunogens” (Aventis Pasteur, Inc., priority 2003, published 2006).
“Also recorded” adds a separate entry of the source.

Legend:
[1] = test system: Splenocytes from C57BL/6 mice; experiment: In vitro analysis of NP peptide presentation, IFN-γ ELISPOT (FIG. 12); assay type: cell-based, mouse; details: 10 ug/ml pulse 1 hour; for duration of ability of pulsed cells to stimulate T cells: incubation up to 120 hours (limit of the assay)
Experimental: FIG. 12. In vitro analysis of NP peptide presentation. Splenocytes from C57BL/6 mice were pulsed with 10 ug/ml of the indicated peptides for 1 hour at 37C., washed, and incubated for 0, 24, 72, or 120 hours. Cells were then tested by ELISPOT for their ability to induce IFN-γ secretion from NP-specific T cells.
FIG. 12 illustrates a similar analysis performed using the NP system.

RMA cells = experiment: Sensitization of RMA target cells for CTL lysis, chromium release assay; assay type: cell-based, mouse; details: 10 pg/ml peptide, 1 hour at 37° C., 4-hour chromium release, T cells of influenza-immunized C57BL/6 mice
Experimental: (§1) FIG. 1. In vitro sensitization of target cells for peptide-specific lysis by hPER1 conjugates.
To determine whether hPER1-CTL conjugates can form CTL target structures, ^51Cr-labeled RMA cells were pulsed with 10^−11 g/ml NP peptide ([…]) or hPER1-NP peptide ([…]), or were left untreated (no peptide) and incubated for 1 hour at 37° C. The cells were then washed and tested for CTL recognition in a standard 4-hour chromium release assay, using T cells obtained from the spleens of C57BL/6 mice immunized with influenza virus.

C57BL/6 mice [2] = experiment: i.v. injection of peptide-pulsed dendritic cells, CTL chromium release (FIG. 4); assay type: in vivo, mouse; details: 5×10^5 pulsed DCs i.v., one week post immunization, SIINFEKL-pulsed targets
Experimental: FIG. 4. CTL responses in C57BL/6 nice following intravenous (i.v.) injection of peptide-pulsed DCs. Mice were immunized i.v. with 5×10^5 bone marrow-derived DCs pulsed with the indicated peptides.
Consequently, we tested the ability of transcytosis peptides to generate CTL responses in the context of a DC-based vaccine. Murine bone marrow derived dendritic cells were matured in vitro, pulsed with either […] alone, conjugated with either Tat or hPER1 with or without linkers, and were injected intravenously in the tail vein of C57BL/6 mice. One week post immunization, the splenocytes from vaccinated animals were tested for CTL activity following in vitro restimulation.

A2/Kb mice = experiment: Immunization with gp100-154 peptides plus or minus helper CD4 peptide, CTL assay (FIGS. 6, 8, 13); assay type: in vivo, mouse; details: for CTL responses / cytotoxicity at three weeks and three months: s.c. immunization, FIG. 13
Text: Results shown represent the mean value of four individual mice for each group.
FIG. 8. The presence of a helper CD4 hepatitis B peptide is essential for the generation of CTL responses against a CD8 peptide. A2/Kb mice were inoculated intranasally with hPER1-FVYVW-154 peptide at different doses from 50 nmoles to 1 nmoles with or without helper peptide.
FIG. 13. Induction of long-term immunity following hPER1-FVYVW-gp100-154 peptide immunization. CTL responses in A2/Kb mice following 3 weeks or 3 months subcutaneous immunization with gp100-154 epitope alone or in association with hPER1-FVYVW. […] Short-term (3 weeks) as well as long-term (3 months) T cell responses are observed in 4/4 or ¾ mice respectively following hPEr1-FVYVW-154 immunization.
(§2) In carrying out the experiments described in FIGS. 6 and 13, mice were immunized by the specified route with 50 nmol (if not specified otherwise) of peptide plus 50 nmol of a hepatitis B epitope in mice to serve as a helper CD4 peptide. Three weeks after the first injection a boost was carried out with the same regimen, and three weeks after that, spleens were harvested and homogenized to a single suspension. Whole splenocytes were placed into culture with 0.5 ug/ml of the epitope peptide and incubated at 37 degrees for five days. A CTL assay was conducted on day five of culture after Ficoll treatment to purify live cells. Controls that were used are matched Kb or A2 binding peptides.

mice = experiment: Summary of in vivo Immunogenicity Studies (Table IV); parameters: species or system mouse
[3] = test system: HLA-A2/Kb transgenic mice; experiment: s.c. peptide immunization, gp100-154 CTL chromium release (FIG. 5); details: 50 ug s.c., boosts days 21 and 42, day 63
Experimental: CTL responses in HLA-A2/Kb transgenic mice following subcutaneous (s.c.) injection of peptide. Mice were immunized s.c. with 50 ug of the indicated peptides and boosted on days 21 and 42 following the first injection. Splenocytes from immunized animals were harvested on day 63 post immunization, re-stimulated with the native gp100-154 peptide for 5 days, and tested for CTL activity in a standard chromium release assay using target cells pulsed with gp100-154 peptide.
Furthermore, CTL responses were assessed in HLA-A2/K^b transgenic mice (Sherman strain) following s.c. immunization with gp100-154 peptide alone, conjugated to hPER1 or AntpHD with or without linker FVYVW. Mice were boosted on days 21 and 42 and splenocytes from vaccinated animals were harvested on day 63 and tested for CTL activity after 5 days of restimulation in vitro.

C57BL/6 mice [4] = experiment: Immunization with […] conjugates, CTL assay (FIGS. 7, 9, 10); assay type: in vivo, mouse; details: for cytotoxicity levels, adjuvant free immunization: s.c. without adjuvant; for CTL responses / cytotoxicity, Tat versus hPER1 conjugates: s.c., DEVWEL linker, FIG. 7
Text: FIG. 7. In vivo induction of T cell responses using hPER1 or Tat peptides conjugated to […] epitope. Mice were immunized subcutaneously with […] peptide associated to either Tat or hPER1 with the DEVWEL linker sequence. Results shown in this figure represent the mean value of 4 individual mice for each group.
FIG. 9. […] C57BL/6 mice were immunized intradermally with different doses of hPER1-SGQL-[…] with or without helper peptide.
FIG. 10. In vivo induction of immunity following adjuvant free peptide immunization with hPER1 associated to […] in the presence of different linker sequences.
as §2

[5] = test system: Splenocytes from C57BL/6 mice; experiment: In vitro analysis of OVA ([…]) peptide presentation, IFN-γ ELISPOT (FIG. 11); assay type: cell-based, mouse; details: 10 ug/ml pulse 1 hour; for stimulatory activity of pulsed cells after 30 hours: 30 hours incubation, IFN-γ ELISPOT
Experimental: FIG. 11. In vitro analysis of OVA ([…]) peptide presentation. Splenocytes from C57BL/6 mice were pulsed with 10 ug/ml of the indicated peptides for 1 hour at 37° C., washed, and incubated for 0, 4, 8, 24, or 30 hours. Cells pulsed with transduction peptides were pre-incubated with a bGAL peptide to block any cell surface binding. The cells were then tested by ELISPOT for their ability to induce IFN-γ secretion from […]-specific T cells. Spot counts greater than 300/well could not be counted. *=sample not tested.
To further study the effect of coupling CTL epitopes to the hPER1 transduction domain, the following in vitro assay was developed to assess the kinetics of antigen presentation following incubation of cells with peptide. In FIG. 11, splenocytes from C57BL/6 mice were incubated with different OVA-based peptides for 1 hour at 37° C. The cells were then washed to remove any residual free peptide, and incubated in culture medium at 37° C. for 0, 4, 8, 24 or 30 hours. The cells were then tested for their ability to stimulate IFN-γ production from […]-specific T cells by ELISPOT.

P815-A2/K^b cells = experiment: Sensitization of P815-A2/K^b target cells for CTL lysis, chromium release assay; assay type: cell-based, mouse
Experimental: as §1
Further, ^51Cr-labeled P815-A2/K^b cells were pulsed with 10^−6 g/ml 280-9V peptide ([…]) or hPER1-280-9V ([…]) or were left untreated (no peptide) and incubated for 1 hour at 37° C. The cells were then washed and tested for CTL recognition in a standard 4-hour chromium release assay, using T cells obtained from the spleens of HLA-A2/K^b transgenic mice immunized with 280-9V peptide in incomplete Freund's adjuvant. Where indicated, 5 μg/ml brefeldin A (BFA) was included in the assay, to block the surface expression of nascent class I MHC molecules. […] The level of CTL killing is reduced if the hPER1-280-9V-pulsed target cells are treated with brefeldin A, which blocks the intracellular transport of newly synthesized MHC molecules.

[6] = test system: PBMCs from an HLA-A2-positive patient; experiment: In vitro induction of human CTL in PBMC culture, chromium release assay; assay type: cell-based; details: repeated in vitro stimulation, day 42, C1R-A2 target cells pulsed with 280-9V
Experimental: FIG. 2. In vitro induction of human T cell responses using a hPER1 conjugate peptide.
Peripheral blood mononuclear cells (PBMCs) from an HLA-A2-positive patient were cultured in the presence of IL-2 (50 U/ml), IL-7 (10 ng/ml), LPS (10 μg/ml), CD40-ligand expressing 3T3 cells, and peptide (10 μg/ml of 280-9V or hPER1-280-9V). On days 11, 22, and 32 the cells were restimulated by culturing in the presence of IL-2 (50 U/ml) and IL-7 (10 ng/ml) and autologous, CD40-ligand activated PBMCs pulsed with peptide (100 μg/ml of 280-9V or hPER1-280-9V) for 3 hours.

[7] = test system: HLA-A2/K^b transgenic mice; experiment: s.c. immunization without adjuvant, CTL assay (FIG. 3B); assay type: in vivo, mouse; details: 100 μg s.c. plus T-helper peptide, no adjuvant, boosts days 14 and 28
Text: Mice were similarly boosted on days 14 and 28. […] Average responses from each group are shown.

[8] = grades − to + + + +, key not given

Substance: ASNENMETM [reference compound]
- stimulatory activity of pulsed cells after 24 hours of incubation ([1]; IFN-γ ELISPOT with NP-specific T cells): shows a loss in activity

Substance: GRRHHRRSKAKRSRASNENMETM [hPER1, no linker, flu NP366-374]
- sensitization of RMA target cells for CTL-mediated lysis (RMA cells): can be sensitized for CTL-mediated lysis
- duration of ability of pulsed cells to stimulate T cells [1]: retain their ability to stimulate T cells out to five days

Substance: GYGRKKRRQRRR-LEQLE-SIINFEKL
- CTL responses after peptide-pulsed DC vaccine (C57BL/6 mice [2]): less immunogenic than TAT-SIINFEKL without linker

Substance: KTWGQYWQV [reference compound]
- CTL responses / cytotoxicity at three weeks and three months (A2/Kb mice; listed as 154): did not induce cytotoxicity at either three weeks or three months; also recorded: does not generate significant CTL responses

Substance: RQIKIWFQNRRMKWKKFVYVWKTWGQYWQV [AntpHD, linker FVYVW, gp100-154]
- Immunogenicity in mice (mice; [8]): + + + +

Substance: RQIKIWFQNRRMKWKKLKTWGQYWQV [AntpHD, linker L, gp100-154]
- Immunogenicity in mice (mice; [8]): + + +

Substance: RQIKIWFQNRRMKWKKTWVGQYWQV
- CTL responses against gp100-154 [3]: a weak response was observed

Substance: RRHHRRSKAKRSRDEVWELSIINFEKL [hPER1, linker DEVWEL, OVA]
- cytotoxicity levels, adjuvant free immunization (C57BL/6 mice [4]; FIG. 10): comparable
- CTL responses / cytotoxicity, Tat versus hPER1 conjugates (C57BL/6 mice [4]): gave the best CTL responses as compared to the positive control SIINFEKL in IFA
- CTL responses / cytotoxicity, Tat versus hPER1 conjugates (C57BL/6 mice [4]; listed as hPER1-DEVWEL-SIINFEKL): induced a greater level of cytotoxicity as compared to Tat-DEVWEL-SIINFEKL at all E:T ratios tested
- Immunogenicity in mice (mice; [8]): + + + +

Substance: RRHHRRSKAKRSRFVYVWKTWGQYWQV [hPER1, linker FVYVW, gp100-154] [listing 1 of 2 here]
- Immunogenicity in mice (mice; mouse, in vivo): + + + +

Substance: RRHHRRSKAKRSRFVYVWKTWGQYWQV [hPER1, linker FVYVW, gp100-154] [listing 2 of 2 here]
- CTL responses by different routes of immunization (A2/Kb mice; 50 nmol peptide plus 50 nmol helper peptide, intradermal, subcutaneous or intranasal): can be generated through different routes of immunization
- cytotoxicity at 10 nmoles without helper peptide (A2/Kb mice; intranasal, 10 nmoles, absence of helper peptide): does not induce significant cytotoxicity
- T cell cytotoxicity, without helper peptide (A2/Kb mice; intranasal, in the absence of helper peptide): induced much lower levels of cytotoxicity
- T cell cytotoxicity, with helper peptide (A2/Kb mice; intranasal, in the presence of helper CD4 hepatitis B peptide): induced significant T cell cytotoxicity
- CTL responses / cytotoxicity at three weeks and three months (A2/Kb mice): induced cytotoxicity that was detectable for at least three months
- mice with long-term T cell responses (A2/Kb mice; s.c., 3 months, 4 mice/group): ¾
- mice with short-term T cell responses (A2/Kb mice; s.c., 3 weeks, 4 mice/group): 4/4

Substance: RRHHRRSKAKRSRFVYVWSIINFEKL [hPER1, linker FVYVW, OVA]
- cytotoxicity levels, adjuvant free immunization (C57BL/6 mice [4]; FIG. 10): comparable
- Immunogenicity in mice (mice; [8]): + + + +

Substance: RRHHRRSKAKRSRFVYVWSVYDFFVWL [hPER1, linker FVYVW, TRP-2]
- Immunogenicity in mice (mice; [8]): + + +

Substance: RRHHRRSKAKRSRLSVYDFFVWL [hPER1, linker L, TRP2]
- Immunogenicity in mice (mice; [8]): + +

Substance: RRHHRRSKAKRSRRGVQIASNENMETM [hPER1, linker RGVQI, flu NP366-374]
- duration of ability of pulsed cells to stimulate T cells [1]: retain their ability to stimulate T cells out to five days

Substance: RRHHRRSKAKRSRSGQLSIINFEKL [hPER1, linker SGQL, OVA]
- T cell responses without helper peptide at higher peptide dose (C57BL/6 mice [4]; intradermal, different doses, absence of helper peptide, FIG. 9): can induce T cell responses in mice
- stimulatory activity of pulsed cells after 30 hours [5]: no reduction in activity

Substance: RRHHRRSKAKRSRSIINFEKL [hPER1, no linker, OVA]
- CTL responses after peptide-pulsed DC vaccine (C57BL/6 mice [2]): generated a stronger response than either DCs pulsed with native SIINFEKL peptide or hPER1-LEQLE-SIINFEKL

Substance: RRHHRRSKAKRSRSVYDFFVWL [hPER1, no linker, TRP-2]
- Immunogenicity in mice (mice; [8]): + +

Substance: RRHHRRSKAKRSRYLEPGPVTV [hPER1-280-9V]
- level of CTL killing of peptide-pulsed target cells treated with brefeldin A (P815-A2/K^b cells; 5 μg/ml brefeldin A in the assay): reduced
- sensitization of P815-A2/K^b target cells for CTL recognition (P815-A2/K^b cells; 10^−6 g/ml peptide, 1 hour at 37° C., 4-hour chromium release): can be sensitized
- induction of 280-9V-specific human CTLs [6]: can be induced
- peptide-specific CTL responses [7]: can be induced

Substance: SIINFEKL [reference compound]
- cytotoxicity levels, peptide in IFA (C57BL/6 mice [4]; administered with incomplete Fruend's adjuvant, FIG. 10): comparable
- incubation time by which pulsed cells lose their stimulatory capacity ([5]; IFN-γ ELISPOT with SIINFEKL-specific T cells): ≤ 24 h

Substance: SVYDFFVWL [TRP2 peptide, unconjugated, reference compound]
- CTL responses after peptide-pulsed DC vaccine (C57BL/6 mice [2]): non immunogenic
- Immunogenicity in mice (mice; [8]): + +

Substance: YGRKKRRQRRRDEVWELSIINFEKL
- stimulatory activity of pulsed cells after 30 hours [5]: no reduction in activity
- Immunogenicity in mice (mice; mouse, in vivo): + + +
